Results on 11 compounds are retold here after ChEMBL document CHEMBL1201862, “PubChem BioAssay data set” (2004).

Each structure is given as a SMILES string. “And” between values parts separate entries of the source, which are not always exact repeats. Equal entries are not always repeated.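 96-well plates; 48 h exposure; 5 concentrations. Endpoints by linear interpolation between flanking doses. Not reached: highest tested concentration assigned. The concentration for 50% growth inhibition is given as GI50.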 The source made the active and inactive calls. Cut-off read from the data, not from the text of the source: active = GI50 up to about 1.1 µM and inactive = higher. Some results are limits rather than exact numbers.

Common to all, as to assay: NCI tumour cell line growth inhibition, 48 h
Assay [1] has as its system SK-MEL-5.
The subject of assay [2] is SR.
Assay [3] has as its system UACC-62.
In assay [4] the test system is RPMI-8226.
Assay [5] relates to HT-29.
In assay [6] the test system is EKVX.
The test system of assay [7] is MDA-N.
Assay [8] deals with SF-268.
Assay [9] relates to Malme-3M.
Assay [10] relates to SK-MEL-28.
Assay [11] deals with SW-620.
For assay [12], the system named is DU-145.
Assay [13] has as its system CAKI-1.
For assay [14], the system named is HOP-92.
Assay [15] has as its system CCRF-CEM.
The test system of assay [16] is KM12.
Assay [17] relates to NCI-H460.
The test system of assay [18] is MDA-MB-231.
The test system of assay [19] is HOP-62.
Assay [20] relates to LOX IMVI.

For the compound `Cc1cc(=O)[nH]c(-n2[nH]c3c(c2=O)CCCC3)n1`, the GI50 is 82 µM (inactive) in assay [1]; 63.1 µM (inactive) in assay [2]; 39.2 µM (inactive) in [3]; 74.1 µM (inactive) in assay [4]; 44.5 µM (inactive) in assay [5]; 58.2 µM (inactive) in [6]. The GI50 was > 100 µM (inactive) in assay [7]; 28.2 µM (inactive) in assay [8]; > 100 µM (inactive) in assay [9]; 45.7 µM (inactive) in assay [10]; 56 µM (inactive) in assay [11]; > 100 µM (inactive) in assay [12]. Moreover, the GI50 is 70.1 µM (inactive) in assay [13]; 31 µM (inactive) in assay [14]; 34.5 µM (inactive) in [15]; > 100 µM (inactive) in assay [16]; 25.9 µM (inactive) in [17]; 67.9 µM (inactive) in assay [18].

For `Cc1cc(C)n(CN(Cn2nc(C)cc2C)c2ccc(N(Cn3nc(C)cc3C)Cn3nc(C)cc3C)cc2)n1`, the GI50 in assay [1] is 16.5 µM (inactive); in assay [19], 25.8 µM (inactive); in assay [2] it was 30.9 µM (inactive); in [3] it was 24.2 µM (inactive); in [4], 13.4 µM (inactive); in assay [5], 21.9 µM (inactive). For the same compound, the GI50 in assay [6] is 26.9 µM (inactive); in [7], 18.9 µM (inactive); in [8], 24.8 µM (inactive); in assay [9] it was 22.3 µM (inactive); in assay [10], 18.7 µM (inactive); in assay [11], 16.6 µM (inactive). Besides, the GI50 in assay [12] is 25.9 µM (inactive); in [13] it was 26.1 µM (inactive); in [14], 23.9 µM (inactive); in [15], 14.4 µM (inactive); in assay [16], 24.2 µM (inactive); in assay [17], 24.6 µM (inactive). Also, in [18], the GI50 was 45.7 µM (inactive).

Turning to `Cn1/c(=N\S(=O)(=O)c2ccccc2)[nH]c2ccccc21`, the GI50 in assay [1], in assay [2], in assay [3], in assay [4], in assay [5] and in [6] was > 100 µM (inactive) each time. Further, the GI50 is > 100 µM (inactive) in [7]; 58.6 µM (inactive) in assay [8]; > 100 µM (inactive) in [9]; > 100 µM (inactive) in [10]; > 100 µM (inactive) in [11]; > 100 µM (inactive) in [12]. In addition, the GI50 in assay [13], in assay [14], in [15], in assay [16], in assay [17] and in assay [18] was > 100 µM (inactive) throughout.

Turning to `O=C(O)c1ccc(C(O)(c2ccccc2)c2ccccc2)cc1`, the GI50 in assay [1], in assay [19], in [2], in [3], in [4] and in assay [6] was > 100 µM (inactive) in each case. The GI50 in assay [7], in [8], in [9], in [10], in assay [20] and in [12] was > 100 µM (inactive) in each case. Further, the GI50 in [13], in assay [15], in assay [16] and in assay [18] was > 100 µM (inactive) each time.

On to `C1=N/CCNCCNCC/N=C/c2ccccc2OCc2cccc(n2)COc2ccccc2/1`, for which the GI50 in [1] was 39.1 µM (inactive); in assay [19] it was 35.2 µM (inactive); in [2] it was 19.5 µM (inactive); in [3], 79.1 µM (inactive); in assay [4], 28.4 µM (inactive); in assay [5], 25.6 µM (inactive). In addition, the GI50 in assay [6] was > 100 µM (inactive); in [7], 15.2 µM (inactive); in assay [8], 47.2 µM (inactive); in assay [9], 61.8 µM (inactive); in [10], > 100 µM (inactive); in assay [11], 36.2 µM (inactive). Besides, the GI50 is 56.9 µM (inactive) in assay [12]; > 100 µM (inactive) in assay [13]; 71.4 µM (inactive) in assay [14]; 16.2 µM (inactive) in [15]; 48.5 µM (inactive) in assay [16]; 34.4 µM (inactive) in assay [17]. Further, the GI50 in [18] is 57.9 µM (inactive).

Regarding `O=C1c2cccc3cccc(c23)C2NCCCN12` (stereo unspecified), the GI50 was 78.2 µM (inactive) in assay [1]; > 100 µM (inactive) in [19]; 71 µM (inactive) in assay [2]; > 100 µM (inactive) in assay [3]; > 100 µM (inactive) in [5]; 35.7 µM (inactive) in [6]. The GI50 in [7] was > 100 µM (inactive); in assay [8], > 100 µM (inactive); in assay [9], > 100 µM (inactive); in [10] it was > 100 µM (inactive); in assay [20] it was > 100 µM (inactive); in assay [11] it was 94 µM (inactive). Further, the GI50 in assay [12] was > 100 µM (inactive); in assay [13], 89.3 µM (inactive); in assay [14] it was > 100 µM (inactive); in assay [15], 37.7 µM (inactive); in assay [16] it was > 100 µM (inactive); in [17], > 100 µM (inactive). Besides, in [18], the GI50 is > 100 µM (inactive).

For the compound `COc1ccc(Cn2c(=O)c(OC)c(C)c3cc4ccccc4cc32)cc1`, the GI50 in assay [1] is 6.21 µM (inactive); in [19], 45.6 µM (inactive); in assay [2], 21.3 µM (inactive); in assay [3], 13.2 µM (inactive); in [5] it was 31.4 µM (inactive); in assay [6], 6.55 µM (inactive). Besides, the GI50 in assay [7] was 34.3 µM (inactive); in assay [8], 39 µM (inactive); in assay [9], 21.1 µM (inactive); in [10] it was 94.6 µM (inactive); in assay [20] it was 18.4 µM (inactive); in assay [11] it was 32.5 µM (inactive). The GI50 in [12] is 35.2 µM (inactive); in assay [13], 37.3 µM (inactive); in assay [15], 23.3 µM (inactive); in assay [16] it was 26.5 µM (inactive); in [17], 17.3 µM (inactive); in [18], 22.7 µM (inactive).

As for `CCNC(=O)Nc1ccccn1`, the GI50 in assay [1], in assay [19], in [2], in assay [3], in assay [5] and in [6] was > 100 µM (inactive) in each case. Further, the GI50 in assay [7], in assay [8], in assay [9], in [10], in [11] and in assay [12] was > 100 µM (inactive) throughout. Further, the GI50 in assay [13], in [14], in [15], in assay [16], in assay [17] and in assay [18] was > 100 µM (inactive) throughout.

As to `CCOC(=O)c1cc(C2=CCNC2=O)c(-c2cc(C)no2)[nH]1`, the GI50 was 66.7 µM (inactive) in assay [1]; 73.3 µM (inactive) in assay [19]; 33.2 µM (inactive) in assay [2]; 39.1 µM (inactive) in assay [3]; 36.7 µM (inactive) in assay [4]; 43.5 µM (inactive) in assay [5]. Besides, the GI50 in assay [6] was 59.4 µM (inactive); in [7] it was 94.6 µM (inactive); in [8], > 100 µM (inactive); in assay [9], > 100 µM (inactive); in [10], 92.5 µM (inactive); in assay [20], 86.5 µM (inactive). Also, the GI50 in assay [11] was 80.2 µM (inactive); in assay [12] it was > 100 µM (inactive); in assay [13] it was > 100 µM (inactive); in assay [15], 34 µM (inactive); in [16] it was 59.8 µM (inactive); in assay [17], 63.4 µM (inactive). Also, the GI50 in assay [18] is 36.4 µM (inactive).

`COc1ccc([C@@]23Oc4cc(OC)cc(OC)c4[C@]2(O)[C@H](O)[C@H](C(N)=O)[C@H]3c2ccccc2)cc1` [DIDESMETHYLROCAGLAMIDE]: the GI50 in assay [1] is < 0.01 µM (active); in assay [19] it was < 0.01 µM (active); in [3] it was < 0.01 µM (active); in [4], < 0.01 µM (active); in assay [5], < 0.01 µM (active); in [6], < 0.0106 µM (active). Also, the GI50 in assay [7], in assay [8], in assay [9], in assay [10], in assay [20] and in assay [11] was < 0.01 µM (active) throughout. Also, the GI50 in assay [12] is < 0.01 µM (active); in [13] it was < 0.0164 µM (active); in assay [14], < 0.01 µM (active); in assay [15], < 0.01 µM (active); in assay [16], < 0.01 µM (active); in assay [17] it was < 0.01 µM (active). Besides, in assay [18], the GI50 was < 0.0108 µM (active).

With `NC1=NC(=O)/C(=C2\CCNC(=O)c3[nH]c(Br)cc32)N1` [HYMENIALDISINE], the GI50 in [19] is 40.8 µM (inactive) and 31.9 µM (inactive); in assay [2] it was 0.303 µM (active); in [3] it was 13.4 µM (inactive) and 9.62 µM (inactive); in assay [6] it was > 100 µM (inactive) and > 71.3 µM (inactive); in assay [7] it was 1.9 µM (inactive); in assay [8], 8.93 µM (inactive) and 5.09 µM (inactive). The GI50 in assay [10] was 7.74 µM (inactive) and 13.8 µM (inactive); in assay [20] it was 4.89 µM (inactive) and 4.57 µM (inactive); in assay [12], 39.6 µM (inactive); in [14], 29.2 µM (inactive) and 40.8 µM (inactive); in assay [15], 2.43 µM (inactive) and 2.9 µM (inactive); in [17] it was 65.6 µM (inactive). In assay [18], the GI50 was 4.66 µM (inactive).
